According to the NIST ThermoML archive (doi:10.1021/je200853g):
± gives the expanded uncertainty stated by the source.

Key:
[1] = Crystal; DTA
[2] = Molar enthalpy of transition or fusion; settings: Crystal; DSC

- Triple point temperature [1]: 433.18 ± 0.5 K
- Molar enthalpy of transition or fusion [2]: 7.45 ± 0.217 kcal/mol
SMILES: Cc1ncc(CO)c(CO)c1O [5-hydroxy-6-methyl-3,4-pyridinedimethanol]
